Test results reported in ChEMBL document CHEMBL1201862, “PubChem BioAssay data set” (2004).
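Test compounds were applied to cells in 96-well plates for 48 hours at 5 doses. GI50 = concentration required for 50% inhibition of growth.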 Calls of active or inactive are those of the source. Cut-off read from the data, not from the text of the source: active = GI50 up to about 1.1 µM and inactive = higher.

Key:
Assay in all cases: DTP human tumour cell line panel, 48 h
[1] = tested on: 786-0
[2] = tested on: A498
[3] = tested on: A549
[4] = tested on: ACHN
[5] = tested on: BT-549
[6] = tested on: CAKI-1
[7] = tested on: CCRF-CEM
[8] = tested on: COLO 205
[9] = tested on: DU-145
[10] = tested on: EKVX
[11] = tested on: HCC 2998
[12] = tested on: HCT-116
[13] = tested on: HCT-15
[14] = tested on: HL-60
[15] = tested on: HOP-62
[16] = tested on: HOP-92
[17] = tested on: HT-29
[18] = tested on: Hs-578T
[19] = tested on: IGROV-1
[20] = tested on: K562
[21] = tested on: KM12
[22] = tested on: LOX IMVI
[23] = tested on: M14
[24] = tested on: MCF7
[25] = tested on: MDA-MB-231
[26] = tested on: MDA-MB-435
[27] = tested on: MOLT-4
[28] = tested on: Malme-3M
[29] = tested on: NCI-H226
[30] = tested on: NCI-H23
[31] = tested on: NCI-H460
[32] = tested on: NCI-H522
[33] = tested on: NCI/ADR-RES
[34] = tested on: OVCAR-3
[35] = tested on: OVCAR-4
[36] = tested on: OVCAR-5
[37] = tested on: OVCAR-8
[38] = tested on: PC-3
[39] = tested on: RPMI-8226
[40] = tested on: RXF 393
[41] = tested on: SF-268
[42] = tested on: SF-295
[43] = tested on: SF-539
[44] = tested on: SK-MEL-28
[45] = tested on: SK-MEL-2
[46] = tested on: SK-MEL-5
[47] = tested on: SN12C
[48] = tested on: SNB-19
[49] = tested on: SW-620
[50] = tested on: T47D
[51] = tested on: TK-10
[52] = tested on: U-251
[53] = tested on: UACC-257
[54] = tested on: UACC-62
[55] = tested on: UO-31
[56] = tested on: SK-OV-3
[57] = tested on: SNB-75

## N=C(N)N/N=C\c1c(-c2cccc([N+](=O)[O-])c2)nc2sccn12
[1]
  GI50: 3.89 µM (inactive)
[2]
  GI50: 25 µM (inactive)
[3]
  GI50: 18.1 µM (inactive)
[4]
  GI50: 2.86 µM (inactive)
[5]
  GI50: 2.1 µM (inactive)
[6]
  GI50: 17.4 µM (inactive)
[7]
  GI50: 2.93 µM (inactive)
[8]
  GI50: 2.39 µM (inactive)
[9]
  GI50: 5.16 µM (inactive)
[10]
  GI50: 15.9 µM (inactive)
[11]
  GI50: 2.39 µM (inactive)
[12]
  GI50: 7.73 µM (inactive)
[13]
  GI50: 9.68 µM
[14]
  GI50: 28.9 µM (inactive)
[15]
  GI50: 3.54 µM (inactive)
[16]
  GI50: 5.93 µM (inactive)
[17]
  GI50: 1.96 µM (inactive)
[18]
  GI50: 3.62 µM (inactive)
[19]
  GI50: 15 µM (inactive)
[20]
  GI50: 2.8 µM (inactive)
[21]
  GI50: 1.02 µM (active)
[22]
  GI50: 3.89 µM (inactive)
[23]
  GI50: 2.52 µM (inactive)
[24]
  GI50: 2.03 µM (inactive)
[25]
  GI50: 2.15 µM (inactive)
[26]
  GI50: 2.59 µM (inactive)
[27]
  GI50: 1.92 µM (inactive)
[28]
  GI50: 24.4 µM (inactive)
[29]
  GI50: 2.68 µM (inactive)
[30]
  GI50: 3.94 µM (inactive)
[31]
  GI50: 24.4 µM (inactive)
[32]
  GI50: 3.45 µM (inactive)
[33]
  GI50: > 100 µM (inactive)
[34]
  GI50: 2.79 µM (inactive)
[35]
  GI50: 1.76 µM (inactive)
[36]
  GI50: 3.91 µM (inactive)
[37]
  GI50: 1.81 µM (inactive)
[38]
  GI50: 6.7 µM (inactive)
[39]
  GI50: 17.4 µM (inactive)
[40]
  GI50: 2.64 µM (inactive)
[41]
  GI50: 2.97 µM (inactive)
[42]
  GI50: 2.64 µM (inactive)
[43]
  GI50: 17.9 µM (inactive)
[44]
  GI50: 2.04 µM (inactive)
[45]
  GI50: 2.37 µM (inactive)
[46]
  GI50: 14.6 µM (inactive)
[47]
  GI50: 2.21 µM (inactive)
[48]
  GI50: 2.09 µM (inactive)
[49]
  GI50: 2.08 µM (inactive)
[50]
  GI50: 1.62 µM (inactive)
[51]
  GI50: 2.47 µM (inactive)
[52]
  GI50: 2.79 µM (inactive)
[53]
  GI50: 23.7 µM (inactive)
[54]
  GI50: 29 µM (inactive)
[55]
  GI50: 18.5 µM (inactive)

## COc1ccc(CNc2nc(NC3CCCCC3)nc(NC3CCCCC3)n2)cc1
[1]
  GI50: 5.71 µM (inactive)
[3]
  GI50: 5.38 µM (inactive)
[4]
  GI50: 5.35 µM (inactive)
[5]
  GI50: 8.53 µM (inactive)
[6]
  GI50: 5.14 µM (inactive)
[7]
  GI50: 4.63 µM (inactive)
[8]
  GI50: 3.62 µM (inactive)
[9]
  GI50: 5.6 µM (inactive)
[10]
  GI50: 4.78 µM (inactive)
[12]
  GI50: 2.85 µM (inactive)
[13]
  GI50: 2.13 µM
[14]
  GI50: 4.88 µM (inactive)
[15]
  GI50: 8.18 µM (inactive)
[16]
  GI50: 8.75 µM (inactive)
[17]
  GI50: 2.61 µM (inactive)
[18]
  GI50: 7.29 µM (inactive)
[19]
  GI50: 4.76 µM (inactive)
[20]
  GI50: 5.08 µM (inactive)
[21]
  GI50: 1.21 µM (inactive)
[22]
  GI50: 1.79 µM (inactive)
[23]
  GI50: 4.42 µM (inactive)
[24]
  GI50: 3.78 µM (inactive)
[25]
  GI50: 3.44 µM (inactive)
[26]
  GI50: 21.8 µM (inactive)
[27]
  GI50: 4.25 µM (inactive)
[28]
  GI50: 9.25 µM (inactive)
[29]
  GI50: 2.99 µM (inactive)
[30]
  GI50: 2.4 µM (inactive)
[31]
  GI50: 3.44 µM (inactive)
[32]
  GI50: 4.31 µM (inactive)
[33]
  GI50: 4.24 µM (inactive)
[34]
  GI50: 11.3 µM (inactive)
[35]
  GI50: 4.02 µM (inactive)
[36]
  GI50: 4.06 µM (inactive)
[37]
  GI50: 15.4 µM (inactive)
[38]
  GI50: 5.15 µM (inactive)
[39]
  GI50: 2.66 µM (inactive)
[40]
  GI50: 3.09 µM (inactive)
[41]
  GI50: 6.46 µM (inactive)
[42]
  GI50: 9.66 µM (inactive)
[43]
  GI50: 8.28 µM (inactive)
[44]
  GI50: 20.6 µM (inactive)
[45]
  GI50: 11.4 µM (inactive)
[46]
  GI50: 3.56 µM (inactive)
[56]
  GI50: > 100 µM (inactive)
[47]
  GI50: 6.53 µM (inactive)
[48]
  GI50: > 100 µM (inactive)
[57]
  GI50: 8.81 µM (inactive)
[49]
  GI50: 4.19 µM (inactive)
[50]
  GI50: 3.41 µM (inactive)
[51]
  GI50: 10 µM (inactive)
[52]
  GI50: 4.06 µM (inactive)
[53]
  GI50: 13.9 µM (inactive)
[54]
  GI50: 6.46 µM (inactive)
[55]
  GI50: 3.57 µM (inactive)
